Earlier results as cited in US20240238319A1, “CEREAL-BASED COMPOSITIONS WITH A MIX OF GALACTO-OLIGOSACCHARIDES/FRUCTO- OLIGOSACCHARIDES AND USES THEREOF FOR IMPROVING IRON ABSORPTION” (COMPAGNIE GERVAIS DANONE, priority 2021, published 2024).

Details: when providing at least 80% of the WHO recommended dietary allowance

**Q.** Which “increased risk of diarrhea” value does the source give for `[Fe]` [iron] here?
**A.** The value was 15%.
